Converted amounts (≈) assume the structure as drawn. Residues, ends and D or L forms follow the SMILES beside them. *: point of attachment. CH2Cl = ClC*
Experiments:
C. albicans strain MLR62 = assay: C. elegans-Candida killing assay, compound library screen in 96-well plates; format: in vivo, Candida albicans; conditions: for Killing: glp-4, sek-1 nematodes, day 6, compound 33.33 μg/ml, 13.33 μg/ml, or 6.67 mM depending on library
Description: For testing the efficacy of chemical compounds, C. albicans strain MLR62 was inoculated into 2 ml of YPD and grown at 30° C. for 24 hours; 10 μl of the culture was spread on 35-mm tissue-culture plates (Falcon) containing brain heart infusion (BHI) agar (Difco) with kanamycin (45 μg/ml), ampicillin (100 μg/ml), and streptomycin (100 μg/ml). The plates were incubated at 30° C. for 24 hours. C. elegans animals at the L4 developmental stage (grown as detailed above under C. elegans liquid medium killing assays) were transferred from a lawn of E. coli HB101 onto C. albicans lawns on BHI medium, incubated at 25° C. for 30 minutes, and then pipetted in 50 μl into 96-well plate wells that contained 100 μl liquid media (79% of M9 buffer, 20% BHI media, 2 μM cholesterol and 90 μg/ml kanamycin). C. elegans glp-4; sek-1 nematodes were pipetted into 96-well plates that contained compounds from chemical libraries. Library 1361 was assembled by Biomol and contains well-characterized compounds that affect many different aspects of cellular pathways. The NINDS custom collection (plates 501-503) was put together by MicroSource Discovery Systems for the National Institute of Neurological Disorders and Stroke (NINDS), the Huntington's Disease Society of America (HDSA), the Amyotrophic Lateral Sclerosis (ALS) Association, and the Hereditary Disease Foundation (HDF). It mostly contains FDA approved drugs. The Prestwick library (plate 1569) contains compounds that are known to be safe and bioactive in humans. The majority of the compounds are marketed drugs.
On day 6, nematodes were evaluated for survival, filament formation and optical density. The plates were incubated at 25° C. and examined on day 6 for survival with a Nikon SMZ645 dissecting microscope. In addition, images were obtained using a CellWorx High Content Cell Analysis System (Applied Precision) at 4× magnification. Dead worms were counted but not removed. […] Each compound was also scored by the number of dead worms in the well that developed hyphea. […] Compounds were categorized as having a minimal effect on filament formation if 25-75% of the dead worms developed hyphea.
Approximately 25 nematodes were used to analyze each chemical compound tested. Two controls were used in all plates. […] In this pilot screen, we considered a compound as a “hit” when survival in the compound well with was 50% and above of the median survival of the control wells. Depending on the compound library, the final concentration of the compounds was 33.33 μg/ml, 13.33 μg/ml, or […].

[1] = tested on: E. faecalis strain MMH594; assay: MIC, 2-fold broth microdilution in BHI media (NCCLS); format: cell-based, Enterococcus faecalis; conditions: Enterococcus faecalis, E30 value is at its aqueous solubility limit, read-out: MIC
Description: Worm survival was scored manually after 6 days of incubation. […] MICs were determined against E. faecalis strain MMH594 using 2-fold dilution in BHI media according to the broth microdilution protocol of the NCCLS (CLSI) (National Committee for Clinical Laboratory Standards, Approved Standard M7-A5; Methods for Dilution Antimicrobial Susceptibility Tests for Bacteria that Grow Aerobically, Villanova, Pa.: NCCLS (2000)).

E. faecalis [2] = assay: Bacterial colonization of the nematode intestine (CFU per worm); format: in vivo, Enterococcus faecalis; conditions: 100% = 3.28 × 10^4 CFU/worm
Description: Infected worms were washed three times with M9 buffer containing 1 mM sodium azide. Approximately 10 worms were transferred to a 2 ml microcentrifuge tube and the volume was brought to 250 μl. Fifty μl of buffer was removed and plated to determine the number of external CFU.

E. faecalis [3] = assay: Curing of a nematode E. faecalis infection on solid medium by antibiotic treatment; format: in vivo, Enterococcus faecalis; conditions: worms transferred to E. faecium lawns
Description: FIGS. 11A-11D show the curing of a nematode E. faecalis infection on solid medium by antibiotic treatment. FIG. 11A is a graph depicting the Kaplan-Meier survival curves of wild-type N2 C. elegans feeding continuously on lawns of E. faecalis (Efs) V583 (▴) or E. faecium (Efm) DO (▾). Nematodes feeding for 24 hours on E. faecalis and subsequently transferred to lawns of E. faecium (▪) die with an LT50 of 14.9 days. Error bars equal SEM. […] FIG. 11C is a graph showing the antibiotic concentrations required to promote rescue of E. faecalis infected N2 nematodes. […] Error bars are standard deviations. […] Error bars equal SEM.
N2 or glp-4(bn2ts); sek-1(km4) worms were synchronized by isolating eggs from gravid adults, hatching the eggs overnight in M9 buffer, and plating L1-stage worms onto lawns of E. coli on NGM agar media. Worms were grown to sterile, young adults by incubation at 25° C. for 48 to 52 hours, washed off the plates with M9 buffer, resuspended and washed in M9 buffer, deposited onto lawns of E. faecalis grown on BHI agar plates containing kanamycin at 80 μg/ml to inhibit E. coli growth, incubated for 8 to 12 hours at 25° C., and resuspended in M9 buffer. For assays using agar media, approximately 35 infected worms were washed and then deposited onto 35 mm plates containing the appropriate antibiotics. Plates were incubated at 25° C. and scored for worm survival at regular intervals. Worms were considered dead if they were unresponsive to touch with a platinum wire pick. For the initial assays using liquid media, approximately 80 infected worms were transferred to wells of a 6 well plate containing 2 ml media consisting of 10% BHI 80 μg/ml kanamycin, 90% M9 buffer, and the appropriate antibiotics. The plates were incubated without agitation at 25° C. and 80-85% relative humidity.

In the case of `CCCCC(C)(O)C/C=C/[C@H]1[C@H](O)CC(=O)[C@@H]1CCCCCCC(=O)O` (mixture of isomers) [Misoprostol, free acid], the Killing (C. albicans strain MLR62) is reported as 0.464.

`CCCCCCCCCCCCCCC[C@H](O)[C@@H](N)CO` (racemic) [DL-Dihydrosphingosine] was tested, and the Killing (C. albicans strain MLR62) was 0.485.

`CCCCC/C=C\C/C=C\C/C=C\C=C\[C@H](CCCC(=O)O)OO` [5 (S) HPETE] showed a Killing (C. albicans strain MLR62) of 0.261.

`CCCCCCCCCCC/C=C\C(C)(C)/C=C\CCCC(=O)O` [7,7-Dimethyleicosadienoic acid] was tested, and the Killing (C. albicans strain MLR62) was 0.304.

Compound `CCCCC[C@@H](/C=C/C=C\C/C=C\C/C=C\CCCC(=O)O)OO` [15 (S) HPETE] has a Killing (C. albicans strain MLR62) of 0.412.

`N#CC(=Cc1ccc2[nH]ccc2c1)C(N)=C(C#N)C#N` [AG-370] gave a Killing (C. albicans strain MLR62) of 0.111.

`N#C/C(=C/c1ccc(O)c(O)c1)C(=O)NCc1ccccc1` [AG-490] showed a Killing (C. albicans strain MLR62) of 0.462.

`COc1cc2ncnc(Nc3cccc(Cl)c3)c2cc1OC` [AG-1478] gave a Killing (C. albicans strain MLR62) of 0.3.

`C[C@H](N)C(=O)N[C@@H](C)C(=O)N[C@@H](Cc1ccccc1)C(=O)CCl` [ALA-ALA-PHE-CMK] (H-Ala-Ala-Phe-CH2Cl) showed a Killing (C. albicans strain MLR62) of 0.448.

In the case of `CC(=O)N[C@@H](CSC/C=C(\C)CC/C=C(\C)CCC=C(C)C)C(=O)O` [Acetyl (N) s farnesyl 1 cys], the Killing (C. albicans strain MLR62) is reported as 0.4.

With `Cc1n[nH]c(=O)[nH]c1=O` [Azathymine, 6] the Killing (C. albicans strain MLR62) was 0.480.

`CO/C1=C\C(C)=C\[C@@H](C)[C@@H](O)[C@@H](C)C/C(C)=C/C=C/[C@H](OC)[C@@H]([C@@H](C)[C@@H](O)[C@H](C)[C@@]2(O)C[C@@H](O)[C@H](C)[C@@H](C(C)C)O2)OC1=O` [Bafilomycin A1] was tested, and the Killing (C. albicans strain MLR62) was 0.333.

With `O=C(/C=C/c1ccc(O)c(O)c1)OCCc1ccccc1` [Caffeic acid phenethyl ester] the “fluorescence within the nematode intestine (GFP-expressing C. albicans)” value (C. albicans strain MLR62; FIG. 18A) was “no fluorescence within the intestine”.

For `O=C(NC(NC(=S)Nc1ccc([N+](=O)[O-])cc1)C(Cl)(Cl)Cl)c1cccc([N+](=O)[O-])c1` (stereo not shown) [Compound E1], the MIC [1] was 31.3 µg/mL (≈ 63.5 µM) and the “Amt. Colonization vs untreated” value (E. faecalis [2]) was 1%.

For `O=C(CCN1C(=O)/C(=C2/SC(=S)N(CCC(=O)Nc3ccccc3C(=O)O)C2=O)SC1=S)Nc1ccccc1C(=O)O` [Compound F1], the MIC [1] was > 125 µg/mL and the “Amt. Colonization vs untreated” value (E. faecalis [2]) was 3%.

In the case of `O=c1[nH]c2ccc(/N=C/c3cc(I)cc(I)c3O)cc2[nH]1` [Compound H1], the MIC [1] is reported as 15.6 µg/mL (≈ 30.9 µM) and the “Amt. Colonization vs untreated” value (E. faecalis [2]) is reported as 1%.

In the case of `O=C1c2ccccc2-c2ncnc3ccc(NC4CCCCC4)c1c23` [Compound J1], the MIC [1] is reported as 2 µg/mL (≈ 6.07 µM) and the “Amt. Colonization vs untreated” value (E. faecalis [2]) is reported as 11%.

With `COc1ccc(/C=C/C2=CCN(Cc3ccccc3)CC2)cc1` [Compound K1] the MIC [1] was > 125 µg/mL and the “Amt. Colonization vs untreated” value (E. faecalis [2]) was 61%.

In the case of `c1ccc(-c2ccc(CN3CCN(c4ccccn4)CC3)cc2)cc1` [Compound L1], the MIC [1] is reported as > 125 µg/mL and the “Amt. Colonization vs untreated” value (E. faecalis [2]) is reported as 101%.

In the case of `CC1(C)C(C=C(Cl)Cl)C1C(=O)NCCCOC(=O)Nc1ccc(Cl)cc1` (stereo not shown) [Compound M1], the MIC [1] is reported as > 125 µg/mL and the “Amt. Colonization vs untreated” value (E. faecalis [2]) is reported as 8%.

In the case of `CC(Oc1cccc(Cl)c1)C(=O)N/N=C/c1cc([N+](=O)[O-])ccc1O` (stereo not shown) [Compound N1], the MIC [1] is reported as 3.9 µg/mL (≈ 10.7 µM) and the “Amt. Colonization vs untreated” value (E. faecalis [2]) is reported as 5%.

`O=[N+]([O-])c1cc(O)ccc1/C=N/Nc1nc(NCc2ccccc2)nc(N2CCOCC2)n1` [Compound O1] was tested, and the MIC [1] was 15.6 µg/mL (≈ 34.6 µM) and the “Amt. Colonization vs untreated” value (E. faecalis [2]) was 8%.

`C=C1[C@@H](C)[C@H]2[C@H](Cc3ccccc3)NC(=O)[C@]23OC(=O)/C=C/[C@H](O)CCC[C@@H](C)C/C=C/[C@H]3[C@@H]1O` [Cytochalasin B] gave a Killing (C. albicans strain MLR62) of 0.438.

With `CC/C=C\C/C=C\C/C=C\C/C=C\C/C=C\CCCC(=O)O` [Eicosapentaenoic acid (20:5 n-3)] the Killing (C. albicans strain MLR62) was 0.448.

Compound `COC(=O)c1c(C)[nH]c(C)c1C(=O)c1ccccc1Cc1ccccc1` [FPL-64176] has a Killing (C. albicans strain MLR62) of 0.429.

For `CCCCC/C=C\C[C@@H](O)/C=C/C=C/C=C\[C@@H](O)CCCC(=O)O` [Leukotriene B4], the Killing (C. albicans strain MLR62) was 0.483.

`CCCCC[C@H](O)/C=C/C=C\C=C\C=C\[C@@H](O)[C@@H](O)CCCC(=O)O` [Lipoxin A4] was tested, and the Killing (C. albicans strain MLR62) was 0.273.

With `Clc1ccc2ncnc(NCc3ccc4c(c3)OCO4)c2c1` [MBCQ] the Killing (C. albicans strain MLR62) was 0.32.

For `C[N+]1(CCCCC[N+]2(C)CCCC2)CCCC1.O=C([O-])C(O)C(O)C(=O)O.O=C([O-])C(O)C(O)C(=O)O` [Pentolinium bitartrate], the Killing (C. albicans strain MLR62) was 0.227.

Compound `CC(=O)[C@H]1CC[C@H]2[C@@H]3CC=C4C[C@@H](OS(=O)(=O)[O-])CC[C@]4(C)[C@H]3CC[C@]12C.[Na+]` [Pregnenolone sulfate, sodium salt] has a Killing (C. albicans strain MLR62) of 0.438.

`N#Cc1cc2c(OCC(O)CN3CCN(C(c4ccccc4)c4ccccc4)CC3)cccc2[nH]1` (stereo not shown) [SDZ-201106] gave a Killing (C. albicans strain MLR62) of 0.432.

`CN(C)[C@@H]1C(O)=C(C(N)=O)C(=O)[C@@]2(O)C(O)=C3C(=O)c4c(O)cccc4[C@@](C)(O)[C@H]3C[C@@H]12` [Tetracycline] was tested, and the “survival of E. faecalis infected N2 C. elegans, p (Kaplan-Meier)” value (“survival … p (Kaplan-Meier)” for short) (E. faecalis [3]; tetracycline 0.08 μg/ml) was 0.56, the “survival … p (Kaplan-Meier)” value (E. faecalis [3]; tetracycline 0.4 μg/ml) was < 0.06 and the “survival … p (Kaplan-Meier)” value (E. faecalis [3]; tetracycline 2 μg/ml) was < 0.0014. The “survival … p (Kaplan-Meier)” value (E. faecalis [3]; tetracycline 10 μg/ml) was < 0.0001.

Docosatrienoic acid (22:3 n-3) was tested, and the Killing (C. albicans strain MLR62) was 0.439.

Eicosatrienoic acid (20:3 n-3) gave a Killing (C. albicans strain MLR62) of 0.333.

For Hydrocortisone hemisuccinate, the Killing (C. albicans strain MLR62) was 0.300.

With Hydroxytacrine maleate the Killing (C. albicans strain MLR62) was 0.467.

Ikarugamycin was tested, and the Killing (C. albicans strain MLR62) was 0.429.

From patent publication US20170020900A1, “METHODS FOR SCREENING ANTIMICROBIAL AND ANTIVIRAL COMPOUNDS AND USES THEREOF” (The General Hospital Corporation, priority 2006, published 2017)
